Measured values: patent US11229633B2, “Arimoclomol formulation” (Orphazyme A/S, priority 2014, dated 2022)

Tests used:
human OCT2 = target: T1, human OCT2 (Homo sapiens, UniProt O15244); assay: Uptake transporter substrate feasibility assay, OCT2; format: in vitro ADME; parameters: key to Substrate: NIO: No interaction observed
T1 construct: expressed in transfected cells; host or cells: CHO (protocol UPT-CHO-OCT2-Metf; control: parental CHO-K1)
T1 sequence (O15244 1-555): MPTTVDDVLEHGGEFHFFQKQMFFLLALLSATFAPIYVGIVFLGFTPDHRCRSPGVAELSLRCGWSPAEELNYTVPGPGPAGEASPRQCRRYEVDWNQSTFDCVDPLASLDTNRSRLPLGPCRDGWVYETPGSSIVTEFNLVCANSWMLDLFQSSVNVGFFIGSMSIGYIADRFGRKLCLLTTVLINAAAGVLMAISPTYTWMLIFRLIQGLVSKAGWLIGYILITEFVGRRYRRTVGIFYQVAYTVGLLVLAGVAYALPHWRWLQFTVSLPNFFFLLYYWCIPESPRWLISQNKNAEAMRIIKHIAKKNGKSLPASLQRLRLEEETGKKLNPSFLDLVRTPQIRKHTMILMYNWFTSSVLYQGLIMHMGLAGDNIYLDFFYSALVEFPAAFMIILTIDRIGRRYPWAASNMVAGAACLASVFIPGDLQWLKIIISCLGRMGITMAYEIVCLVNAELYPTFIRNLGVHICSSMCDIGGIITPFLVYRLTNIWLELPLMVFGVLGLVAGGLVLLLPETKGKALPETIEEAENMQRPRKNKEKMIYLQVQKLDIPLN
Protocol: (§1) Uptake experiments were performed using CHO, MDCKII, or HEK293 cells stably expressing the respective uptake transporters.
(§2) Cells were cultured at 37±1° C. in an atmosphere of 95:5 air:CO2 as described in Table 4 and were plated onto standard 24-well tissue culture plates at 2×10^5 cells/well. The uptake of the TA was determined using cells overexpressing the respective uptake transporter and control cells, at two incubation time points (2 and 20 min) and at two concentrations (1 and 10 μM) of TA to determine whether or not the TA was actively taken up into the cells.
(§3) Before the experiment, the medium was removed and the cells were washed twice with 300 μl of HK buffer (pH 7.4) (prepared from Sigma chemicals). Cellular uptake of TA into the cells was measured by adding 300 μl of HK buffer containing TA and incubating them at 37±1° C. Reactions were quenched by removing the HK buffer containing the TA and the cells were washed twice with 300 μl of HK buffer. Cells were lysed by adding 300 μl of MeOH:H2O (2:1) and incubated for 20 minutes at 4±1° C. The amount of TA in the cell lysate was determined by LC-MS/MS. The amount of protein in each well was quantified using the BCA kit for protein determination (Sigma-Aldrich, St Louis, Mo., USA). Uptake of the probe substrate in control cells provided background activity values for all data points. Incubation without reference inhibitor (solvent only) provided 100% activity values. A reference inhibitor served as positive control for inhibition.
(§4) The fold accumulation value was defined as the ratio of uptake of TA or probe substrate into transfected and control cells:
(§5) [formula] UPTTRP: accumulated amount of TA or probe substrate in transfected cells normalized by protein content [pmol/mg protein] UPTCTL: accumulated amount of TA or probe substrate in control cells normalized by protein content [pmol/mg protein]
(§6) If the fold accumulation is >2 and can be inhibited by a known inhibitor of the transporter, the TA can be considered to be a substrate of the respective transporter.

human OAT3 = target: T2, human OAT3 (Homo sapiens, UniProt Q8TCC7); assay: Uptake transporter substrate feasibility assay, OAT3; format: in vitro ADME; parameters: key to Substrate: NIO: No interaction observed
T2 construct: expressed in transfected cells; host or cells: MDCKII (protocol UPT-MDCKII-OAT3-E3S; control: parental MDCKII)
T2 sequence (Q8TCC7 1-542): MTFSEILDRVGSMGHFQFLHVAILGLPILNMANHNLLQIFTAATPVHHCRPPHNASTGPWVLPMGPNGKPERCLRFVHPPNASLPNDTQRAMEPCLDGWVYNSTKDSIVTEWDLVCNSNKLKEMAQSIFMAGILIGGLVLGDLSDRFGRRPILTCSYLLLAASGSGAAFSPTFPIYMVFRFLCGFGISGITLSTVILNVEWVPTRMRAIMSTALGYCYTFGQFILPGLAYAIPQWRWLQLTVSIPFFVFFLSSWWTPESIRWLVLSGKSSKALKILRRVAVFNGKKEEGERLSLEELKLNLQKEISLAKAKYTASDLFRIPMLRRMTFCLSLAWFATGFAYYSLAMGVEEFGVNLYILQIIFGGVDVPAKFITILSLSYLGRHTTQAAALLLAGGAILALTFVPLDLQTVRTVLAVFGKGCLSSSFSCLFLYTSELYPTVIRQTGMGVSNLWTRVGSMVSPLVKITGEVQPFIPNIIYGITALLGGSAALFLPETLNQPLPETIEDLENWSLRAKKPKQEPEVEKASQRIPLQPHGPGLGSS
Protocol: as §1, §2, §3, §4, §5, §6

[1] = Physical properties of the drug substance; format: physicochemical
[2] = in vivo; cited from earlier work

Structure (SMILES): [O-][n+]1cccc(C(Cl)=NOCC(O)CN2CCCCC2)c1 (stereo not drawn) [Arimoclomol, N-[2-hydroxy-3-(1-piperidinyl)-propoxy]-pyridine-1-oxide-3-carboximidoyl chloride]
- Substrate of the transporter (in words) (human OCT2): not a substrate
- Fold accumulation (human OCT2; 1 μM, 2 min): 0.95
- Fold accumulation (human OCT2; 1 μM, 20 min): 1.28
- Fold accumulation (human OCT2; 10 μM, 2 min): 0.87
- Fold accumulation (human OCT2; 10 μM, 20 min): 1.05
- Fold accumulation (human OCT2; 1 and 10 μM, 2 and 20 min): < 2
- Substrate (human OCT2; Table 2): NIO
- Substrate of the transporter (in words) (human OAT3): not a substrate
- Fold accumulation (human OAT3; 1 μM, 2 min): 0.86
- Fold accumulation (human OAT3; 1 μM, 20 min): 0.86
- Fold accumulation (human OAT3; 10 μM, 2 min): 0.85
- Fold accumulation (human OAT3; 10 μM, 20 min): 0.82
- Fold accumulation (human OAT3; 1 and 10 μM, 2 and 20 min): < 2
- Substrate (human OAT3; Table 2): NIO
- Carr's Index ([1]; drug substance): 44.4%
- bulk density ([1]; drug substance): 0.214 g/cm3
- tapped density ([1]; following 250 taps): 0.386 g/cm3
- plasma half-life [2]: 2 to 4 h
